Measurements taken from patent US9738634B2, “Heterocyclic amide compound and herbicide” (SYNGENTA PARTICIPATIONS AG, priority 2013, dated 2017).

Columns and labels:
Assay type in all cases: in vivo
Conditions in all cases: treatment dosage 320 g/ha
barnyard grass [1] = experiment: Test Example 1: weedkilling efficacy, preemergent weed treatment in the submerged state; A: barnyard grass
Outline: (§1)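 Pre-emergence paddy test: weed seeds sown in submerged alluvial soil (4 cm water), 2.5-leaf rice transplanted, water-diluted emulsion applied to water surface at sowing at stated g/ha. Scored at 3 weeks, greenhouse 25–30 °C.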

bulrush [2] = experiment: Test Example 1: weedkilling efficacy, preemergent weed treatment in the submerged state; B: bulrush
Outline: as §1

oval-leafed pondweed [3] = experiment: Test Example 1: weedkilling efficacy, preemergent weed treatment in the submerged state; C: oval-leafed pondweed
Outline: as §1

transplanted rice = experiment: Test Example 1: preemergent weed treatment in the submerged state, effect on crop; a: transplanted rice
Outline: as §1

barnyard grass [4] = experiment: Test Example 2: weedkilling efficacy, growth period weed treatment in the submerged state; A: barnyard grass
Outline: (§2)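 Seedlings at 1-2 leaves in 4 cm-deep submerged alluvial soil received emulsion formulations on the water surface, dosed per hectare; effects were judged 3 weeks on.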

bulrush [5] = experiment: Test Example 2: weedkilling efficacy, growth period weed treatment in the submerged state; B: bulrush
Outline: as §2

oval-leafed pondweed [6] = experiment: Test Example 2: weedkilling efficacy, growth period weed treatment in the submerged state; C: oval-leafed pondweed
Outline: as §2

crabgrass [7] = experiment: Test Example 3: weedkilling efficacy through soil treatment; D: crabgrass
Outline: (§3)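 Crop and weed responses were judged three weeks after a uniform surface spray of the water-diluted emulsion at the given g/ha rate. Seeds sat beneath about 1.5 cm of sterilized diluvial soil, and boxes stood in a greenhouse at 25 to 30° C.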

green foxtail [8] = experiment: Test Example 3: weedkilling efficacy through soil treatment; E: green foxtail
Outline: as §3

barnyard grass [9] = experiment: Test Example 3: weedkilling efficacy through soil treatment; F: barnyard grass
Outline: as §3

wild oat [10] = experiment: Test Example 3: weedkilling efficacy through soil treatment; G: wild oat
Outline: as §3

black-grass [11] = experiment: Test Example 3: weedkilling efficacy through soil treatment; H: black-grass
Outline: as §3

Italian ryegrass [12] = experiment: Test Example 3: weedkilling efficacy through soil treatment; I: Italian ryegrass
Outline: as §3

common wind-grass [13] = experiment: Test Example 3: weedkilling efficacy through soil treatment; J: common wind-grass
Outline: as §3

Indian mallow [14] = experiment: Test Example 3: weedkilling efficacy through soil treatment; K: Indian mallow
Outline: as §3

redroot pigweed [15] = experiment: Test Example 3: weedkilling efficacy through soil treatment; L: redroot pigweed
Outline: as §3

fig-leafed goosefoot [16] = experiment: Test Example 3: weedkilling efficacy through soil treatment; M: fig-leafed goosefoot
Outline: as §3

chickweed [17] = experiment: Test Example 3: weedkilling efficacy through soil treatment; N: chickweed
Outline: as §3

birds-eye speedwell [18] = experiment: Test Example 3: weedkilling efficacy through soil treatment; p: birds-eye speedwell
Outline: as §3

directly sown rice [19] = experiment: Test Example 3: soil treatment, effect on crop; b: directly sown rice
Outline: as §3

corn [20] = experiment: Test Example 3: soil treatment, effect on crop; c: corn
Outline: as §3

soybean [21] = experiment: Test Example 3: soil treatment, effect on crop; d: soybean
Outline: as §3

wheat [22] = experiment: Test Example 3: soil treatment, effect on crop; e: wheat
Outline: as §3

beet [23] = experiment: Test Example 3: soil treatment, effect on crop; f: beet
Outline: as §3

rapeseed [24] = experiment: Test Example 3: soil treatment, effect on crop; g: rapeseed
Outline: as §3

crabgrass [25] = experiment: Test Example 4: weedkilling efficacy by foliar treatment; D: crabgrass
Outline: (§4)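 Seeds are spot-sown into sterilized diluvial soil and covered with about 1.5 cm of soil. After 14 days' greenhouse growth at 25 to 30° C, plants are sprayed on stems and leaves with diluted emulsion at the stated g/ha rate, then scored at 3 weeks.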

green foxtail [26] = experiment: Test Example 4: weedkilling efficacy by foliar treatment; E: green foxtail
Outline: as §4

barnyard grass [27] = experiment: Test Example 4: weedkilling efficacy by foliar treatment; F: barnyard grass
Outline: as §4

wild oat [28] = experiment: Test Example 4: weedkilling efficacy by foliar treatment; G: wild oat
Outline: as §4

black-grass [29] = experiment: Test Example 4: weedkilling efficacy by foliar treatment; H: black-grass
Outline: as §4

Italian ryegrass [30] = experiment: Test Example 4: weedkilling efficacy by foliar treatment; I: Italian ryegrass
Outline: as §4

common wind-grass [31] = experiment: Test Example 4: weedkilling efficacy by foliar treatment; J: common wind-grass
Outline: as §4

Indian mallow [32] = experiment: Test Example 4: weedkilling efficacy by foliar treatment; K: Indian mallow
Outline: as §4

redroot pigweed [33] = experiment: Test Example 4: weedkilling efficacy by foliar treatment; L: redroot pigweed
Outline: as §4

fig-leafed goosefoot [34] = experiment: Test Example 4: weedkilling efficacy by foliar treatment; M: fig-leafed goosefoot
Outline: as §4

chickweed [35] = experiment: Test Example 4: weedkilling efficacy by foliar treatment; N: chickweed
Outline: as §4

catchweed = experiment: Test Example 4: weedkilling efficacy by foliar treatment; O: catchweed
Outline: as §4

birds-eye speedwell [36] = experiment: Test Example 4: weedkilling efficacy by foliar treatment; p: birds-eye speedwell
Outline: as §4

directly sown rice [37] = experiment: Test Example 4: foliar treatment, effect on crop; b: directly sown rice
Outline: as §4

corn [38] = experiment: Test Example 4: foliar treatment, effect on crop; c: corn
Outline: as §4

soybean [39] = experiment: Test Example 4: foliar treatment, effect on crop; d: soybean
Outline: as §4

wheat [40] = experiment: Test Example 4: foliar treatment, effect on crop; e: wheat
Outline: as §4

beet [41] = experiment: Test Example 4: foliar treatment, effect on crop; f: beet
Outline: as §4

rapeseed [42] = experiment: Test Example 4: foliar treatment, effect on crop; g: rapeseed
Outline: as §4

## COc1cc(F)nc(NC(=O)C(C)(C)N2COC(C)=C(c3ccccc3)C2=O)c1 [B-2-41]
Barnyard grass [1]
  A (barnyard grass) weedkilling efficacy grade: 5 (weed kill ratio 90% or more, (practically complete withering))
Bulrush [2]
  B (bulrush) weedkilling efficacy grade: 5 (weed kill ratio 90% or more, (practically complete withering))
oval-leafed pondweed [3]
  C (oval-leafed pondweed) weedkilling efficacy grade: 5 (weed kill ratio 90% or more, (practically complete withering))
Transplanted rice
  a (transplanted rice) effect on crop grade: 3 (weed kill ratio 40% or more, less than 70%)
Barnyard grass [4]
  A (barnyard grass) weedkilling efficacy grade: 5 (weed kill ratio 90% or more, (practically complete withering))
Bulrush [5]
  B (bulrush) weedkilling efficacy grade: 5 (weed kill ratio 90% or more, (practically complete withering))
oval-leafed pondweed [6]
  C (oval-leafed pondweed) weedkilling efficacy grade: 5 (weed kill ratio 90% or more, (practically complete withering))
Crabgrass [7]
  D (crabgrass) weedkilling efficacy grade: 5 (weed kill ratio 90% or more, (practically complete withering))
Green foxtail [8]
  E (green foxtail) weedkilling efficacy grade: 5 (weed kill ratio 90% or more, (practically complete withering))
Barnyard grass [9]
  F (barnyard grass) weedkilling efficacy grade: 5 (weed kill ratio 90% or more, (practically complete withering))
Wild oat [10]
  G (wild oat) weedkilling efficacy grade: 3 (weed kill ratio 40% or more, less than 70%)
black-grass [11]
  H (black-grass) weedkilling efficacy grade: 5 (weed kill ratio 90% or more, (practically complete withering))
Italian ryegrass [12]
  I (Italian ryegrass) weedkilling efficacy grade: 5 (weed kill ratio 90% or more, (practically complete withering))
Common wind-grass [13]
  J (common wind-grass) weedkilling efficacy grade: 5 (weed kill ratio 90% or more, (practically complete withering))
Indian mallow [14]
  K (Indian mallow) weedkilling efficacy grade: 2 (weed kill ratio 20% or more, less than 40%)
Redroot pigweed [15]
  L (redroot pigweed) weedkilling efficacy grade: 3 (weed kill ratio 40% or more, less than 70%)
fig-leafed goosefoot [16]
  M (fig-leafed goosefoot) weedkilling efficacy grade: 4 (weed kill ratio 70% or more, less than 90%)
Chickweed [17]
  N (chickweed) weedkilling efficacy grade: 4 (weed kill ratio 70% or more, less than 90%)
birds-eye speedwell [18]
  P (birds-eye speedwell) weedkilling efficacy grade: 5 (weed kill ratio 90% or more, (practically complete withering))
Directly sown rice [19]
  b (directly sown rice) effect on crop grade: 4 (weed kill ratio 70% or more, less than 90%)
Corn [20]
  c (corn) effect on crop grade: 0 (weed kill ratio 5% or less (practically no effect))
Soybean [21]
  d (soybean) effect on crop grade: 0 (weed kill ratio 5% or less (practically no effect))
Wheat [22]
  e (wheat) effect on crop grade: 0 (weed kill ratio 5% or less (practically no effect))
Beet [23]
  f (beet) effect on crop grade: 3 (weed kill ratio 40% or more, less than 70%)
Rapeseed [24]
  g (rapeseed) effect on crop grade: 4 (weed kill ratio 70% or more, less than 90%)
Crabgrass [25]
  D (crabgrass) weedkilling efficacy grade: 5 (weed kill ratio 90% or more, (practically complete withering))
Green foxtail [26]
  E (green foxtail) weedkilling efficacy grade: 5 (weed kill ratio 90% or more, (practically complete withering))
Barnyard grass [27]
  F (barnyard grass) weedkilling efficacy grade: 5 (weed kill ratio 90% or more, (practically complete withering))
Wild oat [28]
  G (wild oat) weedkilling efficacy grade: 3 (weed kill ratio 40% or more, less than 70%)
black-grass [29]
  H (black-grass) weedkilling efficacy grade: 5 (weed kill ratio 90% or more, (practically complete withering))
Italian ryegrass [30]
  I (Italian ryegrass) weedkilling efficacy grade: 5 (weed kill ratio 90% or more, (practically complete withering))
Common wind-grass [31]
  J (common wind-grass) weedkilling efficacy grade: 5 (weed kill ratio 90% or more, (practically complete withering))
Indian mallow [32]
  K (Indian mallow) weedkilling efficacy grade: 5 (weed kill ratio 90% or more, (practically complete withering))
Redroot pigweed [33]
  L (redroot pigweed) weedkilling efficacy grade: 4 (weed kill ratio 70% or more, less than 90%)
fig-leafed goosefoot [34]
  M (fig-leafed goosefoot) weedkilling efficacy grade: 3 (weed kill ratio 40% or more, less than 70%)
Chickweed [35]
  N (chickweed) weedkilling efficacy grade: 4 (weed kill ratio 70% or more, less than 90%)
catchweed
  O (catchweed) weedkilling efficacy grade: 5 (weed kill ratio 90% or more, (practically complete withering))
birds-eye speedwell [36]
  P (birds-eye speedwell) weedkilling efficacy grade: 5 (weed kill ratio 90% or more, (practically complete withering))
Directly sown rice [37]
  b (directly sown rice) effect on crop grade: 4 (weed kill ratio 70% or more, less than 90%)
Corn [38]
  c (corn) effect on crop grade: 4 (weed kill ratio 70% or more, less than 90%)
Soybean [39]
  d (soybean) effect on crop grade: 4 (weed kill ratio 70% or more, less than 90%)
Wheat [40]
  e (wheat) effect on crop grade: 0 (weed kill ratio 5% or less (practically no effect))
Beet [41]
  f (beet) effect on crop grade: 4 (weed kill ratio 70% or more, less than 90%)
Rapeseed [42]
  g (rapeseed) effect on crop grade: 5 (weed kill ratio 90% or more, (practically complete withering))
